Counter-ions that a name gives are not always drawn. Like-named read-outs stand apart in the source and are kept apart here.
How the values were obtained:
[1] = biological target: T1, human P5C reductase 1 (PYCR1) (Homo sapiens, UniProt P32322); experiment: P5C reductase assay (P5C-dependent oxidation of NAD(P)H); assay type: biochemical; conditions: for effect on the activity of human P5C reductase: at concentrations as low as 1 μM
T1 construct: His-tag; made in house; host or cells: E. coli BL21(DE3) pLysS
T1 sequence (P32322 1-319): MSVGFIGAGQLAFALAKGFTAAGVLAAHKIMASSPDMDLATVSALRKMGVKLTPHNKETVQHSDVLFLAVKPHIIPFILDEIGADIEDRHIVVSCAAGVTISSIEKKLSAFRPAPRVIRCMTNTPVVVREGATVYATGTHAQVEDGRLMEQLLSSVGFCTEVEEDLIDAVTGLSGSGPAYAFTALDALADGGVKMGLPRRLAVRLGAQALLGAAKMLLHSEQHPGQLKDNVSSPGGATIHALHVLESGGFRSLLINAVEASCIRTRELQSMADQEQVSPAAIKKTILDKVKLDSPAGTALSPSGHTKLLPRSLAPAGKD
Description: The gene coding for P5C reductase 1 (PYCR1, gene ID 5831), cloned into the expression vector pET28a^+[34], was kindly provided by prof. Zihe Rao (Tsinghua University, China). For heterologous expression, E. coli BL21(DE3) pLysS cells (Invitrogen) were made competent by the calcium chloride method, transformed with the recombinant vector and selected on kanamycin-containing LB plates. About 6 h after inducing gene expression in liquid LB medium at 24 °C by the addition of 1 mM isopropyl-D-thiogalactopyranoside, cells were harvested by centrifugation and stored at −20 °C. Aliquots (about 1 g cell material) were lysed in an ice-cold mortar with 2 g g^−1 alumina and resuspended in 20 mL g^−1 extraction buffer (50 mM Na phosphate buffer, pH 7.5, containing 200 mM NaCl and 20 mM imidazole). The His-tagged protein was purified from clarified extracts by affinity chromatography onto a His-Trap^TM FF column (1 mL, GE Healthcare 17–5319-01). Stepwise elution was achieved by increasing concentrations of imidazole in extraction buffer. Discontinuous SDS–polyacrylamide gel electrophoresis was performed at 8 mA with a 5% stacking and a 12% separating gel, using a Minigel system (BioRad). Samples were mixed with the same volume of 125 mM Tris–HCl buffer (pH 6.8) containing 4% (w/v) SDS, 20% (v/v) glycerol and 10% (v/v) β-mercaptoethanol, and denatured 5 min at 100 °C. Proteins were visualised by soaking gels in Quick Coomassie Stain (CliniSciences) overnight.
Enzyme activity was measured at 30 °C as the P5C-dependent oxidation of NAD(P)H. Assays were performed in 96-microwell plates in a final volume of 0.2 mL. The assay mixture contained 4 mM DL-P5C and 0.5 mM of either NADH or NADPH in 50 mM Tris-HCl buffer, pH 7.5. Parallel blanks were performed in which P5C had been omitted. The decrease of absorbance was measured for 5 min at 0.5-min intervals using a Ledetect plate reader (Labexim, Lengau, Austria) equipped with a LED plugin at 340 nm. Residual NAD(P)H content was estimated on the basis of calibration curves obtained under the same conditions. Activity was calculated by linear regression of data using Prism 6 for Windows, version 6.03 (GraphPad Software, San Diego, CA); one unit of activity was defined as the amount of enzyme that catalyses the P5C-dependent oxidation of 1 nmol NAD(P)H s^−1 (nkat). Proteins were measured by the Coomassie Brilliant Blue method, using bovine serum albumin as the standard. To evaluate substrate affinity, invariable substrates were fixed at the same levels as in the standard assay. For variable substrates, L-P5C ranged from 400 to 2000 μM, while the concentration of NADH and NADPH ranged from 125 to 500 μM. To evaluate the inhibition brought about by pargylines and aminomethylene-bisphosphonates, freshly prepared 10 mM stock solution in water and 100 mM Tris-HCl buffer pH 7.5, respectively, were diluted with water and added to the reaction mixture before enzyme addition. Parallel control samples were carried out in the absence of any inhibitor. Activity was calculated as described above. Mean activity value in controls was set as 100%, and activity in treated samples was expressed as percent of such value. Percent values were plotted against the logarithm of inhibitor concentration, and data were interpolated using the equation Y = 100/(1 + 10^∧((LogIC50-X)*HillSlope)). Assays were performed in triplicate (technical replications). Each experiment was repeated at least twice with different enzyme preparations (biological replicates). KM and Vmax values, as well as the concentrations causing 50% inhibition (IC50), KI values and their confidence intervals were estimated by non-linear regression analysis using Prism 6.

[2] = biological target: human P5C reductase; conditions: cited from earlier work
[3] = biological target: glutamine synthetase; conditions: human enzyme; cited from earlier work
[4] = system: human myelogenous erythroleukemic K562 cells; experiment: Antiproliferative assay, K562 cells; assay type: cell-based; conditions: for IC50: Homo sapiens, K562
Description: (§1) Human myelogenous erythroleukemic K562 cells[36] were cultured in a humidified atmosphere of 5% CO2/air either in complete RPMI 1640 medium (Lonza, Verviers, Belgium) or in a modified medium without L-proline (United States Biological, Massachusetts, USA), both supplemented with 10% foetal bovine serum (FBS; Biowest, Nuaillé, France), 100 U mL^−1 penicillin and 100 μg mL^−1 streptomycin. Human epithelial breast cancer MDA-MB-231 cells[37] were cultured under the same conditions in DMEM medium (Lonza, Verviers, Belgium) supplemented with 10% FBS, 100 U mL^−1 penicillin, 100 μg mL^−1 streptomycin and 2 mM L-glutamine.
(§2) K562 cells in the late exponential phase of growth were seeded in 1 mL medium without FBS in 24-well plates to an initial density of about 20,000 cells mL^−1. Treatments with Br2PAMBPA in the range 1–200 µM were carried out 5 h after seeding. Cell growth was monitored at increasing time after the treatment by determining cell density on 50-μL aliquots with a Z1 Coulter Counter (Coulter Electronics), considering a dimensional range between 8 and 20 μm. MDA-MB-231 cells in the late exponential phase of growth (90% confluence) were washed with sterile PBS, incubated with sterile trypsin-EDTA solution (Sigma-Aldrich, Saint Louis, USA) for 2 min, resuspended in fresh DMEM medium and centrifuged at 1000 g at room temperature for 5 min. Pellets were resuspended in sterile PBS and spun again to remove any residue of trypsin. Cells were finally resuspended in DMEM medium without FBS, and seeded in 24-well plates in a final volume of 1 mL to an initial density of about 20,000 cells mL^−1. Treatments with Br2PAMBPA in the range 1–200 µM were carried out 5 h after seeding, and 2% FBS was added to each well 24 h thereafter. Cell growth was monitored at increasing time after the treatment by destructive harvest. For both cell lines each treatment was carried out at least in triplication, and each experiment was performed at least twice.

[5] = system: K562 cells; experiment: Cell viability assay (Trypan Blue exclusion), K562 cells; assay type: cell-based, human; conditions: modified RPMI medium not containing proline, 96 h after the inoculum
Description: Cell viability was assessed by the Trypan Blue exclusion test[38]. Stained cells were counted in a Bürker chamber. Viable and nonviable cells were recorded separately, and the results of three independent counts were pooled. Data were expressed as percent of alive cells.

[6] = system: K562 cells; experiment: Measurement of intracellular free proline and P5C levels, K562 cells; assay type: cell-based, human
Description: For proline and P5C quantification, treatments were carried out in T-25 flasks containing 10 mL medium. Cells were harvested by centrifugation at 1000 g for 5 min at RT. Each pellet was resuspended in 1.4 mL of sterile PBS and spun again to remove the medium. Washed pellets were transferred on ice, resuspended in a minimal volume of a 3% (w/v) solution of 5-sulfosalicylic acid and subjected to various freeze-thaw cycles to induce rupture of the phospholipid membrane. Cell debris were sedimented by centrifugation at 12,000 g for 5 min at RT, and the supernatants were analysed by the acid ninhydrin method of Williams and Frank, as described.

[7] = system: human epithelial breast cancer MDA-MB-231 cells; experiment: Antiproliferative assay, MDA-MB-231 cells; assay type: cell-based
Description: as §1
as §2, with “Cells were finally resuspended in DMEM medium without FBS, and seeded in 24-well plates in a final volume of 1 mL to an initial density of about 20,000 cells mL^−1.” left out

[8] = system: breast cancer cell; conditions: at 10 μM; cited from earlier work
[9] = IC50, NADH as the electron donor
[10] = IC50, NADPH as the electron donor
[11] = IC50 values, abstract, cofactor not specified
[12] = treated serum-free, 2% FBS added 24 h thereafter

In the case of `C#CCN(C)Cc1ccccc1` [Pargyline, N-methyl-N-(2-propynyl)benzylamine hydrochloride, reference compound], the IC50 [1, 9] is listed as > 10000 µM, the IC50 [1, 10] is listed as 81 µM and the IC50 ([2]; listed as pargylin) is listed as 200 µM. For the same compound, the IC50 ([2]; listed as pargyline) was 198 µM.

With `O=P(O)(O)C(Nc1cc(Cl)cc(Cl)c1)P(=O)(O)O` [3,5-Cl2PAMBPA] the IC50 [1, 9] was 0.78 ± 0.04 µM, the IC50 [1, 10] was 0.74 ± 0.06 µM and the IC50 [1, 11] was < 1 µM. The “mechanism of inhibition against both P5C and NADPH” value ([1]; abstract) was “competitive type”, the “effect on the activity of human P5C reductase” value [1] was “almost completely suppressed” and the IC50 [3] was 780 ± 30 µM.

For `O=P(O)(O)C(Nc1cc(Br)cc(Br)c1)P(=O)(O)O` [Br2PAMBPA, 3,5-dibromophenylaminomethylene-bisphosphonic acid], the “type of inhibition with NADH as the variable substrate” value [1] was “mixed-type”, the IC50 [1, 9] was 0.48 ± 0.03 µM and the IC50 [1, 10] was 0.39 ± 0.03 µM. For the same compound, the IC50 [1, 11] was < 1 µM, the Ki ([1]; NADH as variable substrate (Fig. 4D)) was 0.66 ± 0.21 µM and the Ki ([1]; NADPH as variable substrate (Fig. 4C)) was 0.48 ± 0.08 µM. The Ki ([1]; P5C as variable substrate, NADH as electron donor (Fig. 4B)) was 0.12 ± 0.01 µM, the Ki ([1]; P5C as variable substrate, NADPH as electron donor (Fig. 4A)) was 0.32 ± 0.02 µM and the “mechanism of inhibition against both P5C and NADPH” value ([1]; abstract) was “competitive type”. The “effect on the activity of human P5C reductase” value [1] was “almost completely suppressed”, the “type of inhibition against P5C” value ([1]; with NADPH or NADH as the electron donor) was “competitive type” and the IC50 ([4]; modified RPMI medium not containing proline, read-out: concentration giving 50%-inhibition of growth) was ~20 µM. The IC50 ([4]; unmodified RPMI medium containing 20 mg L^−1 (174 μM) Pro, read-out: concentration giving 50% inhibition of growth) was ~7 µM, the “concentrations progressively impairing growth” value ([4]; abstract) was 10^−6 to 10^−4 M and the “concentration range in which growth was inhibited” value ([4]; modified RPMI medium not containing proline) was 2 to 200 µM. The “concentrations at which cell viability was significantly reduced” value [5] was “exceeding 50 µM”, the “levels of P5C” value ([6]; all cases, detection limit printed as > 1 nmol [10^6 cells]^−1) was “no detectable” and the free proline concentration ([6]; control and treated K562 cells, with or without exogenous proline) was 4–5 nmol (10^6 cells)^−1. The “intracellular levels of free proline vs controls” value ([6]; modified RPMI medium not containing proline, 96 h after the inoculum) was “not significantly different than in controls”, the “reduction of free proline content with respect to viable cells” value ([6]; unmodified RPMI medium with 20 mg L^−1 Pro, at 50 µM) was “less than 50%” and the “free proline content with respect to viable cells” value ([6]; unmodified RPMI medium with 20 mg L^−1 Pro, up to 50 µM) was “no reduction was evident”. For the same compound, the “effect on cell proliferation in standard medium” value ([7]; DMEM with FBS, concentrations exceeding 50 μM, preliminary, data not shown) was “only mild effects”, the “concentrations progressively impairing growth” value ([7]; abstract) was 10^−6 to 10^−4 M and the “concentration from which cell growth rate and maximal cell density were progressively reduced” value [7, 12] was ≥ 5 µM. The “concentration from which cell proliferation was completely abolished” value [7, 12] was ≥ 50 µM.

Work on `C#CCN(C)Cc1ccc(Br)cc1` [4-bromopargyline, reference compound] yielded an IC50 [1, 9] of 234 ± 28 µM, an IC50 [1, 10] of 9 µM and an IC50 ([1]; NADPH as the electron donor, read-out: IC50) of 8.7 ± 0.8 µM. The IC50 [2] was 9 µM and the “reduction of breast cancer cell proliferation” value [8] was 30–40%.
